Reference: patent US20250206757A1 (GASHERBRUM BIO, INC., priority 2022, published 2025)

Biological target: GLP-1 Receptor (Homo sapiens, UniProt P43220)
Assay: GLP-1R agonist cAMP stimulation assay (HEK293/GLP1R/CRE-LUC cells, HTRF cAMP dynamic 2 kit)
Assay type: cell-based
Conditions: HEK293/CRE-Luc cell line stably expressing the GLP-1 Receptor; 30 min incubation at 37° C.
In short: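 HEK293 cells stably expressing GLP-1R with CRE-Luc, 1000 cells/well in DPBS with 0.5 mM IBMX and 0.10% BSA, exposed to half-log compound dilutions for 30 min at 37 °C. cAMP measured by HTRF (665/615 nm) after 1 h at room temperature.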

Chain of GLP-1 Receptor (P43220 24-463): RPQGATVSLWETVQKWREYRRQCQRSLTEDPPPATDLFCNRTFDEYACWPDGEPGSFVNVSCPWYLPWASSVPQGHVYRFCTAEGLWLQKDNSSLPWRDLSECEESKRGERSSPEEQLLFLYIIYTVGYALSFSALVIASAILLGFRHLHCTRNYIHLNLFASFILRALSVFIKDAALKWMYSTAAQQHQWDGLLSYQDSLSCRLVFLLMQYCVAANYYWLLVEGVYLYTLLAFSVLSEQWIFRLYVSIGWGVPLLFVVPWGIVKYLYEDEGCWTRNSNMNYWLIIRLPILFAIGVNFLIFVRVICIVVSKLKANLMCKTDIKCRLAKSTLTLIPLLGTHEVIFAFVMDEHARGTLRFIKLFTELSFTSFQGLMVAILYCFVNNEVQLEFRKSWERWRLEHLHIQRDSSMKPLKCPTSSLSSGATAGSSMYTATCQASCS

Row | Compound | EC50 [nM]
1 | Fc1cc(Cl)ccc1COc1nc2cc(Cc3nc4cc(-c5nnc(C(F)(F)F)[nH]5)ncc4n3C[C@@H]3CCO3)ccc2cc1C(F)(F)F [Compound 98, 2-[(4-chloro-2-fluorophenyl)methoxy]-7-[(3-{[(2S)-oxetan-2-yl]methyl}-6-[5-(trifluoromethyl)-4H-1,2,4-triazol-3-yl]-3H-imidazo[4,5-c]pyridin-2-yl)methyl]-3-(trifluoromethyl)quinoline] | < 1
2 | O=C(O)CCn1cc(-c2cnc3c(c2)nc(CN2CCc4cc(C(F)(F)F)c(OCc5ccc(Cl)cc5F)nc4C2)n3C[C@@H]2CCO2)nn1 [Compound 99, 3-{4-[2-({2-[(4-chloro-2-fluorophenyl)methoxy]-3-(trifluoromethyl)-5,6,7,8-tetrahydro-1,7-naphthyridin-7-yl}methyl)-3-{[(2S)-oxetan-2-yl]methyl}-3H-imidazo[4,5-b]pyridin-6-yl]-1H-1,2,3-triazol-1-yl}propanoic acid] | 1 to 300
3 | O=c1cc(-c2cc3nc(CN4CCc5cc(C(F)(F)F)c(OCc6ccc(Cl)cc6F)nc5C4)n(C[C@@H]4CCO4)c3cn2)cc[nH]1 [Compound 100, 4-[2-({2-[(4-chloro-2-fluorophenyl)methoxy]-3-(trifluoromethyl)-5,6,7,8-tetrahydro-1,7-naphthyridin-7-yl}methyl)-3-{1[(2S)-oxetan-2-yl]methyl}-3H-imidazo[4,5-c]pyridin-6-yl]-1,2-dihydropyridin-2-one] | > 300
4 | O=c1ccc(-c2cc3nc(CN4CCc5cc(C(F)(F)F)c(OCc6ccc(Cl)cc6F)nc5C4)n(C[C@@H]4CCO4)c3cn2)c[nH]1 [Compound 102, 5-[2-({2-[(4-chloro-2-fluorophenyl)methoxy]-3-(trifluoromethyl)-5,6,7,8-tetrahydro-1,7-naphthyridin-7-yl}methyl)-3-{[(2S)-oxetan-2-yl]methyl}-3H-imidazo[4,5-c]pyridin-6-yl]-1,2-dihydropyridin-2-one] | > 300
5 | O=C(Nc1cc2nc(CN3CCc4cc(C(F)(F)F)c(OCc5ccc(Cl)cc5F)nc4C3)n(C[C@@H]3CCO3)c2cn1)c1cccnc1 [Compound 103, N-[2-({2-[(4-chloro-2-fluorophenyl)methoxy]-3-(trifluoromethyl)-5,6,7,8-tetrahydro-1,7-naphthyridin-7-yl}methyl)-3-{[(2S)-oxetan-2-yl]methyl}-3H-imidazo[4,5-c]pyridin-6-yl]pyridine-3-carboxamide] | < 1
6 | O=c1[nH]c(-c2cc3nc(CN4CCc5cc(C(F)(F)F)c(NCc6ccc(Cl)cc6F)nc5C4)n(C[C@@H]4CCO4)c3cn2)no1 [Compound 104, 3-{2-[(2-{[(4-chloro-2-fluorophenyl)methyl]amino}-3-(trifluoromethyl)-5,6,7,8-tetrahydro-1,7-naphthyridin-7-yl)methyl]-3-{[(2S)-oxetan-2-yl]methyl}-3H-imidazo[4,5-c]pyridin-6-yl}-4,5-dihydro-1,2,4-oxadiazol-5-one] | < 1
7 | O=c1[nH]c(-c2cc3nc(CN4CCc5cc(C(F)(F)F)c(NCc6c(F)cc(Cl)cc6F)nc5C4)n(C[C@@H]4CCO4)c3cn2)no1 [Compound 105, 3-{2-[(2-{[(4-chloro-2,6-difluorophenyl)methyl]amino}-3-(trifluoromethyl)-5,6,7,8-tetrahydro-1,7-naphthyridin-7-yl)methyl]-3-{[(2S)-oxetan-2-yl]methyl}-3H-imidazo[4,5-c]pyridin-6-yl}-4,5-dihydro-1,2,4-oxadiazol-5-one] | < 1
8 | O=c1[nH]c(-c2ccc3c(nc(CN4CCc5cc(C(F)(F)F)c(NCc6ccc(Cl)cc6F)nc5C4)n3C[C@@H]3CCO3)c2F)no1 [Compound 106, 3-{2-[(2-{[(4-chloro-2-fluorophenyl)methyl]amino}-3-(trifluoromethyl)-5,6,7,8-tetrahydro-1,7-naphthyridin-7-yl)methyl]-4-fluoro-1-{[(2S)-oxetan-2-yl]methyl}-1H-1,3-benzodiazol-5-yl}-4,5-dihydro-1,2,4-oxadiazol-5-one] | < 1
9 | NC(=O)c1nnc(-c2cc3nc(CN4CCc5cc(C(F)(F)F)c(NCc6ccc(Cl)cc6F)nc5C4)n(C[C@@H]4CCO4)c3cn2)[nH]1 [Compound 107, 5-{2-[(2-{[(4-chloro-2-fluorophenyl)methyl]amino}-3-(trifluoromethyl)-5,6,7,8-tetrahydro-1,7-naphthyridin-7-yl)methyl]-3-{[(2S)-oxetan-2-yl]methyl}-3H-imidazo[4,5-c]pyridin-6-yl}-4H-1,2,4-triazole-3-carboxamide] | < 1
10 | N#Cc1nnc(-c2cc3nc(CN4CCc5cc(C(F)(F)F)c(NCc6ccc(Cl)cc6F)nc5C4)n(C[C@@H]4CCO4)c3cn2)[nH]1 [Compound 108, 5-{2-[(2-{[(4-chloro-2-fluorophenyl)methyl]amino}-3-(trifluoromethyl)-5,6,7,8-tetrahydro-1,7-naphthyridin-7-yl)methyl]-3-{[(2S)-oxetan-2-yl]methyl}-3H-imidazo[4,5-c]pyridin-6-yl}-4H-1,2,4-triazole-3-carbonitrile] | < 1
11 | Fc1cc(Cl)ccc1CNc1nc2c(cc1C(F)(F)F)CCN(Cc1nc3cc(-c4nnc(C(F)(F)F)[nH]4)ncc3n1C[C@@H]1CCO1)C2 [Compound 109, N-[(4-chloro-2-fluorophenyl)methyl]-7-[(3-{1[(2S)-oxetan-2-yl]methyl}-6-[5-(trifluoromethyl)-4H-1,2,4-triazol-3-yl]-3H-imidazo[4,5-c]pyridin-2-yl)methyl]-3-(trifluoromethyl)-5,6,7,8-tetrahydro-1,7-naphthyridin-2-amine] | < 1
12 | Fc1cc(Cl)cc(F)c1CNc1nc2c(cc1C(F)(F)F)CCN(Cc1nc3cc(-c4nnc(C5CC5)[nH]4)ncc3n1C[C@@H]1CCO1)C2 [Compound 110, N-[(4-chloro-2,6-difluorophenyl)methyl]-7-{[6-(5-cyclopropyl-4H-1,2,4-triazol-3-yl)-3-{[(2S)-oxetan-2-yl]methyl}-3H-imidazo[4,5-c]pyridin-2-yl]methyl}-3-(trifluoromethyl)-5,6,7,8-tetrahydro-1,7-naphthyridin-2-amine] | < 1
